Data published in PubChem BioAssay (NCI).
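Briefly, cells in 96-well plates were exposed to five compound concentrations for 48 h, and endpoints were estimated by linear interpolation. GI50 is the concentration that inhibits growth by half. TGI is the concentration that stops growth completely.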 Where a SMILES comes first, the peptide text is derived from it. [ ]: non-standard residue; d: D form. The star is where a group is joined. Phe(4-NO2) = N[CH](Cc1ccc([N+](=O)[O-])cc1)C(=O)O; Boc = CC(C)(C)OC(=O)*

Assays:
Test in all cases: NCI tumour cell line growth inhibition, 48 h
[1] = system: MDA-MB-231 breast
[2] = system: K-562 leukemia
[3] = system: SF-539 CNS
[4] = system: HS 578T breast
[5] = system: TK-10 renal
[6] = system: HOP-92 NSCLC
[7] = system: SW-620 colon
[8] = system: NCI-H460 lung
[9] = system: HCT-116 colon
[10] = system: UACC-62 melanoma

COc1cccc(NC(=O)CC(=O)n2nc(-c3ccccc3)c(N=Nc3ccc(Cl)cc3)c2-c2ccccc2)c1
TGI [1]: > 100 µM | TGI [2]: > 78 µM | TGI [3]: > 74.8 µM | TGI [4]: > 82.3 µM | TGI [5]: > 100 µM | TGI [6]: > 75 µM | TGI [7]: > 100 µM | TGI [8]: > 92.5 µM | TGI [9]: 67 µM | TGI [10]: > 72.7 µM

C=CC(C)(C)/C=C/c1ccc(O)cc1
TGI [1]: > 100 µM | TGI [3]: > 100 µM | TGI [4]: > 100 µM | TGI [5]: > 100 µM | TGI [6]: > 100 µM | TGI [7]: > 100 µM | TGI [8]: > 100 µM | TGI [9]: > 100 µM | TGI [10]: > 100 µM

CC(CCc1nc2ccccc2s1)(c1ccc(O)cc1)c1ccc(O)cc1
TGI [1]: 32 µM | TGI [2]: 47.2 µM | TGI [4]: 52.9 µM | TGI [5]: 34.1 µM | TGI [6]: 36.7 µM | TGI [7]: 43.5 µM | TGI [8]: 30 µM | TGI [9]: 34 µM | TGI [10]: 29.4 µM

CCCC1=C(OC)C(=O)c2c(C)cc(Cl)nc2C1=O
TGI [1]: 19.5 µM | TGI [3]: 20.3 µM | TGI [4]: > 47 µM | TGI [5]: 34.5 µM | TGI [6]: 11.3 µM | TGI [7]: 10.5 µM | TGI [8]: 26.6 µM | TGI [9]: 7.26 µM | TGI [10]: 13.8 µM

O=Nc1c(-c2c(O)[nH]c3ccc(I)cc23)[nH]c2ccccc12
TGI [1]: 9.77 µM | TGI [3]: 81.5 µM | TGI [4]: > 29.8 µM | TGI [5]: > 41.5 µM | TGI [6]: > 27.7 µM | TGI [8]: > 47.4 µM | TGI [10]: 4.45 µM

NC1CCCCC1NCCNC1CCCCC1N (configuration not stated)
TGI [1]: > 100 µM | TGI [2]: > 100 µM | TGI [3]: > 100 µM | TGI [4]: > 100 µM | TGI [5]: > 100 µM | TGI [6]: > 100 µM | TGI [7]: > 100 µM | TGI [8]: > 100 µM | TGI [9]: > 100 µM | TGI [10]: > 100 µM

O=C(O)Cn1c2c(c3c1-c1ccccc1C3=O)C(=O)CCC2
GI50 [1]: > 100 µM | TGI [1]: > 100 µM | GI50 [2]: > 100 µM | TGI [2]: > 100 µM | GI50 [3]: > 100 µM | TGI [3]: > 100 µM | GI50 [4]: > 100 µM | TGI [4]: > 100 µM | GI50 [5]: > 100 µM | TGI [5]: > 100 µM | GI50 [6]: 20 µM | TGI [6]: > 100 µM | GI50 [7]: > 100 µM | TGI [7]: > 100 µM | GI50 [8]: > 100 µM | TGI [8]: > 100 µM | GI50 [9]: > 100 µM | TGI [9]: > 100 µM

COc1ccc(/C=c2\[nH]c3nc(=O)c(N4CCCCC4)c(N)n3c2=O)cc1
TGI [1]: > 100 µM | TGI [2]: > 100 µM | TGI [3]: > 100 µM | TGI [4]: > 100 µM | TGI [5]: > 100 µM | TGI [6]: > 100 µM | TGI [7]: > 100 µM | TGI [9]: > 100 µM

COC(=O)[C@@H](NS(=O)(=O)CC12CCC(CC1)C2(C)C)C(C)(C)C
TGI [1]: > 100 µM | TGI [2]: > 100 µM | TGI [3]: > 100 µM | TGI [4]: > 100 µM | TGI [5]: > 100 µM | TGI [6]: > 100 µM | TGI [7]: > 100 µM | TGI [8]: > 100 µM | TGI [9]: > 100 µM | TGI [10]: > 100 µM

Cc1cc2c(c(C(=O)NCC(=O)O)c1)Oc1c(cc(C)cc1C(=O)NCC(=O)O)S2
TGI [1]: > 100 µM | TGI [2]: > 100 µM | TGI [3]: > 100 µM | TGI [4]: > 100 µM | TGI [5]: > 100 µM | TGI [6]: > 100 µM | TGI [7]: > 100 µM | TGI [9]: > 100 µM | TGI [10]: > 100 µM

O=C1CC(c2ccsc2)n2cccc21 (configuration not stated)
TGI [1]: > 100 µM | TGI [2]: > 100 µM | TGI [3]: > 100 µM | TGI [4]: > 100 µM | TGI [5]: > 100 µM | TGI [6]: > 100 µM | TGI [7]: > 100 µM | TGI [9]: > 100 µM | TGI [10]: > 100 µM

N/N=C(/N)SCCCCCCCCCCS/C(N)=N/N
TGI [1]: 85.2 µM | TGI [2]: 32.3 µM | TGI [3]: > 100 µM | TGI [4]: > 100 µM | TGI [5]: > 100 µM | TGI [7]: 36.6 µM | TGI [8]: 32.7 µM | TGI [9]: > 100 µM | TGI [10]: 47.1 µM

C=C(CN(CC)CC)C1(c2ccccc2)CC2(CCCC2)C(=O)O1 (configuration not stated)
TGI [1]: > 100 µM | TGI [2]: > 100 µM | TGI [3]: > 100 µM | TGI [4]: > 100 µM | TGI [5]: > 100 µM | TGI [6]: 83.3 µM | TGI [7]: > 100 µM | TGI [8]: > 100 µM | TGI [9]: > 100 µM | TGI [10]: > 100 µM

Cc1cc2nc3ccccc3n2c2ccccc12
TGI [1]: > 10 µM | TGI [2]: > 10 µM | TGI [3]: > 10 µM | TGI [4]: > 10 µM | TGI [5]: > 10 µM | TGI [7]: > 10 µM | TGI [8]: > 10 µM | TGI [9]: > 10 µM | TGI [10]: > 10 µM

C/C(=C\Cc1ccc(F)cc1)CCCCCC/C(C)=C/Cc1ccc(F)cc1
TGI [1]: 37.9 µM | TGI [2]: 28.5 µM | TGI [3]: 31.8 µM | TGI [4]: 78.1 µM | TGI [5]: 29.5 µM | TGI [6]: 23.5 µM | TGI [7]: 48.6 µM | TGI [8]: 17 µM | TGI [9]: 33 µM | TGI [10]: 33 µM

Cc1nc(C)c(N2CCN(CN)CC2)c(=O)[nH]1
TGI [1]: > 100 µM | TGI [2]: > 100 µM | TGI [3]: > 100 µM | TGI [4]: > 100 µM | TGI [5]: > 100 µM | TGI [6]: > 100 µM | TGI [7]: > 100 µM | TGI [8]: > 100 µM | TGI [9]: > 100 µM | TGI [10]: > 100 µM

Cc1ccc(-n2nncc2[Si](C)(C)C)s1
TGI [1]: > 100 µM | TGI [2]: > 100 µM | TGI [3]: > 100 µM | TGI [4]: > 100 µM | TGI [5]: > 100 µM | TGI [6]: > 100 µM | TGI [7]: > 100 µM | TGI [8]: > 100 µM | TGI [9]: > 100 µM | TGI [10]: > 100 µM

CC(OP(=O)(O)O)C(N)C(=O)O (configuration not stated)
TGI [1]: > 100 µM | TGI [2]: > 100 µM | TGI [3]: > 100 µM | TGI [4]: > 100 µM | TGI [5]: > 100 µM | TGI [6]: > 100 µM | TGI [7]: > 100 µM | TGI [8]: > 100 µM | TGI [9]: > 100 µM | TGI [10]: > 100 µM

CC(=O)/C=C/c1ccccc1
TGI [1]: > 100 µM | TGI [2]: > 100 µM | TGI [3]: 64.6 µM | TGI [4]: > 100 µM | TGI [5]: > 100 µM | TGI [7]: > 100 µM | TGI [8]: > 100 µM | TGI [9]: > 100 µM | TGI [10]: > 100 µM

O=C1C=CC(=O)c2c(O)c(N3CCOCC3)c(Cl)c(O)c21
TGI [1]: 0.612 µM | TGI [2]: > 10 µM | TGI [3]: 1 µM | TGI [4]: 1.7 µM | TGI [5]: 1.79 µM | TGI [6]: 0.675 µM | TGI [7]: 0.351 µM | TGI [8]: 2.71 µM | TGI [9]: 0.403 µM | TGI [10]: 1.41 µM

CCOC(=O)c1cc2c3c(c(C(C)=O)c(OC)c2[nH]1)N(C(=O)CC)CC3
TGI [1]: 40.9 µM | TGI [2]: 50.5 µM | TGI [3]: 41.7 µM | TGI [4]: 57.9 µM | TGI [6]: 28.9 µM | TGI [7]: > 100 µM | TGI [8]: 45.3 µM | TGI [9]: 30.9 µM | TGI [10]: 34.4 µM

CCOC(=O)CCC(NC(=O)C(Cc1ccc([N+](=O)[O-])cc1)NC(=O)OC(C)(C)C)C(=O)NC(CCC(=O)OCC)C(=O)OCC (configuration not stated) (Boc-[Phe(4-NO2)]-Glu(OEt)-Glu(OEt)-OEt; configuration not given here)
TGI [1]: > 100 µM | TGI [4]: 53.1 µM | TGI [5]: 30.1 µM | TGI [6]: 34.7 µM | TGI [7]: 40.2 µM | TGI [8]: 57.3 µM | TGI [9]: 38.5 µM | TGI [10]: 32.4 µM
